# Measured values from paper PMC3795068, “Functional Evolution of a Multigene Family: Orthologous and Paralogous Pheromone Receptor Genes in the Turnip Moth, Agrotis segetum” (PLoS ONE, 2013).
# Substitutions are numbered along the chain they refer to.
# Legend:
# Assay in all cases: two-electrode voltage clamp, Xenopus oocytes, inward current
# Type in all cases: cell-based
# [1] = target: T1, AsegOR5 (Agrotis segetum, UniProt U5KJI3); details: agonist, 100 uM stimulus, 20 s, -80 mV, Ringer's pH 7.6, with Orco
# T1 construct: full-length ORF, 443 aa, pCS2+ cRNA co-injected with Orco (473 aa) cRNA in Xenopus laevis oocytes; with Odorant receptor co-receptor (Orco)
# T1 sequence (U5KJI3 1-443): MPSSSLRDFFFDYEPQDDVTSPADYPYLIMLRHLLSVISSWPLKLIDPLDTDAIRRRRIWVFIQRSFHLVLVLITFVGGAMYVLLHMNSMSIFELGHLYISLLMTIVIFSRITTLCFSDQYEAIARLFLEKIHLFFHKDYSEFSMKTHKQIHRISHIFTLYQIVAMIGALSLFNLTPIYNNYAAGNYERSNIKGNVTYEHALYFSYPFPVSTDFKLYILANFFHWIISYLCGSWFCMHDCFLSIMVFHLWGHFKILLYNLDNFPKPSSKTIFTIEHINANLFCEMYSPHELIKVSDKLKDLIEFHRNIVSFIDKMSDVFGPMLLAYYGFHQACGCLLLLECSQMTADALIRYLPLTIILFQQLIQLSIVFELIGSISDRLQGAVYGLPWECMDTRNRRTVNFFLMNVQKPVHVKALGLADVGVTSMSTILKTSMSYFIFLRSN
# T1 sequence (U5KJY5 1-473 partner): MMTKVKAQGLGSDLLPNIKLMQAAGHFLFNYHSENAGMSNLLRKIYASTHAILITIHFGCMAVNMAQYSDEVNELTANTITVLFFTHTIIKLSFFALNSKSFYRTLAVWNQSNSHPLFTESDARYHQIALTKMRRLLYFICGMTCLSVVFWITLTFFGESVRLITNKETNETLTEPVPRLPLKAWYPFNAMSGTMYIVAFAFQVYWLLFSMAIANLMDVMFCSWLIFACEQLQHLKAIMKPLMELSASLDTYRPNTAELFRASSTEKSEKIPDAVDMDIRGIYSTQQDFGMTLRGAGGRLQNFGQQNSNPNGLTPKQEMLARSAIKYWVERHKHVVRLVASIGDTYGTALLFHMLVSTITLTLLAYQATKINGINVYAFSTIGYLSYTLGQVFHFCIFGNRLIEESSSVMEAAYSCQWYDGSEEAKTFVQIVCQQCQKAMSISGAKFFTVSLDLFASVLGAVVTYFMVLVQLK
# [2] = target: T2, AsegOR4 (Agrotis segetum, UniProt U5KJQ7); details: agonist; 100 uM stimulus, 20 s, -80 mV, Ringer's pH 7.6, with Orco; dose response curve
# T2 construct: full-length ORF, 424 aa, pCS2+ cRNA co-injected with Orco (473 aa) cRNA in Xenopus laevis oocytes; with Odorant receptor co-receptor (Orco)
# T2 sequence (U5KJQ7 1-424): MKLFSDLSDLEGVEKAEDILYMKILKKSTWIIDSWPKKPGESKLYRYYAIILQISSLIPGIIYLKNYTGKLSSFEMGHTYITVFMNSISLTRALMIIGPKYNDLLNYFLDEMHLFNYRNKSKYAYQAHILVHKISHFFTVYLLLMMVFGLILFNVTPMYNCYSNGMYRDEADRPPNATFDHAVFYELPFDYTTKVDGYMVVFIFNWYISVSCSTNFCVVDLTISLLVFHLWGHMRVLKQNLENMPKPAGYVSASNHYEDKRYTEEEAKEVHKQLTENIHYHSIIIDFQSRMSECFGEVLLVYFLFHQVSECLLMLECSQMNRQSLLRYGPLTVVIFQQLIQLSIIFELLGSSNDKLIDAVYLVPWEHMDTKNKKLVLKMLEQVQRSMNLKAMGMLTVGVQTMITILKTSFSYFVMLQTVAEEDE
# T2 sequence (U5KJY5 1-473 partner): T1 sequence (U5KJY5 1-473 partner)
# [3] = target: T3, AsegOR3 (Agrotis segetum, UniProt U5KJT1); details: agonist; 100 uM stimulus, 20 s, -80 mV, Ringer's pH 7.6, with Orco
# T3 construct: full-length ORF, 435 aa, pCS2+ cRNA co-injected with Orco (473 aa) cRNA in Xenopus laevis oocytes; with Odorant receptor co-receptor (Orco)
# T3 sequence (U5KJT1 1-435): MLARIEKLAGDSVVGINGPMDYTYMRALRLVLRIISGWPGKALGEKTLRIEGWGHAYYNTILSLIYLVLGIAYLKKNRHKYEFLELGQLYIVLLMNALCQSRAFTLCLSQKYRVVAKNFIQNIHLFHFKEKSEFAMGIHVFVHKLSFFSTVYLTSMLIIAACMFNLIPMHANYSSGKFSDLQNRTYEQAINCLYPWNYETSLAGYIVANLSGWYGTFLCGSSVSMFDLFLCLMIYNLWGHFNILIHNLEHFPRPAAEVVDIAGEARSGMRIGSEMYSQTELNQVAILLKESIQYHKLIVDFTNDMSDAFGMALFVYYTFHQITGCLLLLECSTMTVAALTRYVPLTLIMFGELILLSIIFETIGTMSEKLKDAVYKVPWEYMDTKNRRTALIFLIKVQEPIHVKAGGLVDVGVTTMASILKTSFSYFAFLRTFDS
# T3 sequence (U5KJY5 1-473 partner): T1 sequence (U5KJY5 1-473 partner)
# [4] = target: T4, AsegOR7 (Agrotis segetum, UniProt U5KK33); details: agonist; 100 uM stimulus, 20 s, -80 mV, Ringer's pH 7.6, with Orco
# T4 construct: with Odorant receptor co-receptor (Orco)
# T4 sequence (U5KK33 1-432): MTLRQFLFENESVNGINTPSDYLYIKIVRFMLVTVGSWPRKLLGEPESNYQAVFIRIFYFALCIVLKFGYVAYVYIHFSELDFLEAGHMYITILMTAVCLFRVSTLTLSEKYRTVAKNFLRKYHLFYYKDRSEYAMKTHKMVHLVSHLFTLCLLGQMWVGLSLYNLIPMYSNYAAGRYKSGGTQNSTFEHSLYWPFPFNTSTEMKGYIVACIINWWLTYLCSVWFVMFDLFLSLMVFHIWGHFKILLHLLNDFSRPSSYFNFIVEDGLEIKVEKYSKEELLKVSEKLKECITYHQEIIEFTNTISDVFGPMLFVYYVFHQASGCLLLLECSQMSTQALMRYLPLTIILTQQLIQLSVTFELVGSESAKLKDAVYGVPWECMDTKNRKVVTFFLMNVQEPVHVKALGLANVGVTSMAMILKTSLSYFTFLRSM
# T4 sequence (U5KJY5 1-473 partner): T1 sequence (U5KJY5 1-473 partner)
# [5] = target: T5, AsegOR10 (Agrotis segetum, UniProt U5KJI4); details: agonist, 100 uM stimulus, 20 s, -80 mV, Ringer's pH 7.6, with Orco
# T5 construct: full-length ORF, 432 aa, pCS2+ cRNA co-injected with Orco (473 aa) cRNA in Xenopus laevis oocytes; with Odorant receptor co-receptor (Orco)
# T5 sequence (U5KJI4 1-432): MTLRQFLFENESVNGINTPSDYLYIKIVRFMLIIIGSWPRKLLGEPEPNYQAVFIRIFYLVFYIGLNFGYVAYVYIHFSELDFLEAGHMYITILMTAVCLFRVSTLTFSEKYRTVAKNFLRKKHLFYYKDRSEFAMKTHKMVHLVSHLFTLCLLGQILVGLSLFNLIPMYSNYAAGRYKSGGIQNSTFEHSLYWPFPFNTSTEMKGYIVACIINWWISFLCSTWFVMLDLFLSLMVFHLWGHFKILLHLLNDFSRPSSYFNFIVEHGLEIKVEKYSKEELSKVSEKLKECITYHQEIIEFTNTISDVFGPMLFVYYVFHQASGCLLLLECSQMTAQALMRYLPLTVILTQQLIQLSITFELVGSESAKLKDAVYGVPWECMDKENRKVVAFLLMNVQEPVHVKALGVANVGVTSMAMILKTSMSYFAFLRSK
# T5 sequence (U5KJY5 1-473 partner): T1 sequence (U5KJY5 1-473 partner)
# [6] = target: T6, AsegOR6 (Agrotis segetum, UniProt U5KJY6); details: agonist; 100 uM stimulus, 20 s, -80 mV, Ringer's pH 7.6, with Orco; dose response curve
# T6 construct: full-length ORF, 430 aa, pCS2+ cRNA co-injected with Orco (473 aa) cRNA in Xenopus laevis oocytes; with Odorant receptor co-receptor (Orco)
# T6 sequence (U5KJY6 1-430): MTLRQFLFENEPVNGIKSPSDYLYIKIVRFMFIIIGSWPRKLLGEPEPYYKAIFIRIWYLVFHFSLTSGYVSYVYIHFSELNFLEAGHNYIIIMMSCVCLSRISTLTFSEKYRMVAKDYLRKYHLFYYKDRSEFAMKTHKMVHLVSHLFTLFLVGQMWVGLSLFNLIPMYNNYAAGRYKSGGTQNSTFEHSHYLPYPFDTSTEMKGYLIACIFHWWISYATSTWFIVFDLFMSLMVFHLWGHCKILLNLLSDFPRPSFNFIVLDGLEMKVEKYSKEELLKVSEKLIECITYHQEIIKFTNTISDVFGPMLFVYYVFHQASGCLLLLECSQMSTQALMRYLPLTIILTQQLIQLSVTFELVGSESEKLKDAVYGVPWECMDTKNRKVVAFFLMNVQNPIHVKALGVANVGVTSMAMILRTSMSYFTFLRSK
# T6 sequence (U5KJY5 1-473 partner): T1 sequence (U5KJY5 1-473 partner)
# [7] = target: T7, AsegOR8 (Agrotis segetum, UniProt U5KJT2); details: agonist; 100 uM stimulus, 20 s, -80 mV, Ringer's pH 7.6, with Orco; dose response curve
# T7 construct: with Odorant receptor co-receptor (Orco)
# T7 sequence (U5KJT2 1-430): T6 sequence (U5KJY6 1-430) with P48S, K51Q, I53V, L60F, L279S, K368R, T425A
# T7 sequence (U5KJY5 1-473 partner): T1 sequence (U5KJY5 1-473 partner)
# [8] = target: T8, AsegOR1 (Agrotis segetum, UniProt U5KK32); details: agonist; 100 uM stimulus, 20 s, -80 mV, Ringer's pH 7.6, with Orco; dose response curve
# T8 construct: full-length ORF, 432 aa, pCS2+ cRNA co-injected with Orco (473 aa) cRNA in Xenopus laevis oocytes; with Odorant receptor co-receptor (Orco)
# T8 sequence (U5KK32 1-432): T4 sequence (U5KK33 1-432) with M31L, V33I, F101S, V103I, T114M, R131H, Y134L, V376I, T383K, K384E
# T8 sequence (U5KJY5 1-473 partner): T1 sequence (U5KJY5 1-473 partner)
# [9] = target: T9, AsegOR9 (Agrotis segetum, UniProt U5KJQ9); details: agonist; 100 uM stimulus, 20 s, -80 mV, Ringer's pH 7.6, with Orco; dose response curve
# T9 construct: full-length ORF, 433 aa, pCS2+ cRNA co-injected with Orco (473 aa) cRNA in Xenopus laevis oocytes; with Odorant receptor co-receptor (Orco)
# T9 sequence (U5KJQ9 1-433): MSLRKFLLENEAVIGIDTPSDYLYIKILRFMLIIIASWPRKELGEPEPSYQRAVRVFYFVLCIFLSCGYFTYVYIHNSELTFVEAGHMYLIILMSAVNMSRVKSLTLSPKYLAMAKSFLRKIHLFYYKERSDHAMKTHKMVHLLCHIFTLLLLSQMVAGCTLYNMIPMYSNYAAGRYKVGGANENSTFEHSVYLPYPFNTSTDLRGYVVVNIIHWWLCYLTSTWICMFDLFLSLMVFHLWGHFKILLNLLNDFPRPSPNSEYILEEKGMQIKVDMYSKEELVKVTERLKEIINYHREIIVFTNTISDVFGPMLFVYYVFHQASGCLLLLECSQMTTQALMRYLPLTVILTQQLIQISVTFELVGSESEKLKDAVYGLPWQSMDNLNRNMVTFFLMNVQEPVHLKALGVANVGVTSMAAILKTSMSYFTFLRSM
# T9 sequence (U5KJY5 1-473 partner): T1 sequence (U5KJY5 1-473 partner)
smiles,measurement,setting,value
CCCC/C=C\CCCCCCOC(C)=O [Z7-12:OAc],"two-electrode voltage clamp, Xenopus oocytes, inward current",[1],a much smaller response to Z7-12:OAc and marginal responses to other tested compounds
same,"two-electrode voltage clamp, Xenopus oocytes, inward current",[2],AsegOR4 (Cluster IV) was specifically responsive to the pheromone component Z7-12:OAc
same,"two-electrode voltage clamp, Xenopus oocytes, inward current",[3],albeit with Z7-12:OAc standing out as the most active one
same,"two-electrode voltage clamp, Xenopus oocytes, inward current",[4],receptors for Z8-12:OAc and Z7-12:OAc (AsegOR1 and AsegOR7)
CCC/C=C\CCCCCCCOC(C)=O [Z8-12:OAc],"two-electrode voltage clamp, Xenopus oocytes, inward current",[4],receptors for Z8-12:OAc and Z7-12:OAc (AsegOR1 and AsegOR7)
CCCC/C=C\CCCCCCCCOC(C)=O [Z9-14:OAc],"two-electrode voltage clamp, Xenopus oocytes, inward current",[5],AsegOR10 responded to Z9-14:OAc and Z5-10:OAc but with low sensitivity
same,"two-electrode voltage clamp, Xenopus oocytes, inward current",[1]; dose response curve,AsegOR5 (Cluster II) showed the largest response to Z9-14:OAc
CCCC/C=C\CCCCO [Z5-10:OH],"two-electrode voltage clamp, Xenopus oocytes, inward current",[6],oocytes that showed the strongest response to another antagonist Z5-10:OH
same,"two-electrode voltage clamp, Xenopus oocytes, inward current",[7],Two of them (AsegOR6 and AsegOR8) showed strong responses to Z5-10:OH (Figure 5B)
CCCC/C=C\CCCCOC(C)=O [Z5-10:OAc],"two-electrode voltage clamp, Xenopus oocytes, inward current",[5]; dose response curve,AsegOR10 responded to Z9-14:OAc and Z5-10:OAc but with low sensitivity
same,"two-electrode voltage clamp, Xenopus oocytes, inward current",[8],Oocytes co-expressing AsegOR1 and Aseg\Orco also responded to Z5-10:OAc
same,"two-electrode voltage clamp, Xenopus oocytes, inward current",[9],co-expressing AsegOR9 (Cluster I) and Aseg\Orco robustly and specifically responded to Z5-10:OAc
same,"two-electrode voltage clamp, Xenopus oocytes, inward current",[7],Different sensitivities of the six paralogues to the main pheromone component Z5-10:OAc
